Reference: the NIST ThermoML archive (doi:10.1016/j.jct.2016.06.016)

Assay: xn = mol fraction of the nth substance listed
Settings: 100 kPa, Liquid; for viscosity: Concentric cylinders viscometry; for mass density: Vibrating tube method

CCOC(=O)CCC(=O)OCC [diethyl butanedioate] + CCCCO
Settings | mass density [kg/m3] | viscosity [mPa·s]
288.15 K, x1 = 0.1 | 851.32 | 2.665
288.15 K, x1 = 0.2001 | 884.48 | 2.382
288.15 K, x1 = 0.3 | 913.45 | 2.302
288.15 K, x1 = 0.3999 | 938.87 | 2.306
288.15 K, x1 = 0.5 | 961.37 | 2.342
288.15 K, x1 = 0.6001 | 981.44 | 2.405
288.15 K, x1 = 0.6998 | 999.46 | 2.515
288.15 K, x1 = 0.7999 | 1015.94 | 2.692
288.15 K, x1 = 0.8997 | 1031 | 2.934
288.15 K, x1 = 1 | 1044.83 | 3.195
293.15 K, x1 = 0.1 | 847.26 | 2.339
293.15 K, x1 = 0.2001 | 880.14 | 2.106
293.15 K, x1 = 0.3 | 908.86 | 2.041
293.15 K, x1 = 0.3999 | 934.12 | 2.045
293.15 K, x1 = 0.5 | 956.51 | 2.077
293.15 K, x1 = 0.6001 | 976.5 | 2.133
293.15 K, x1 = 0.6998 | 994.45 | 2.228
293.15 K, x1 = 0.7999 | 1010.87 | 2.38
293.15 K, x1 = 0.8997 | 1025.85 | 2.585
293.15 K, x1 = 1 | 1039.63 | 2.807
298.15 K, x1 = 0.1 | 843.14 | 2.072
298.15 K, x1 = 0.2001 | 875.78 | 1.877
298.15 K, x1 = 0.3 | 904.32 | 1.825
298.15 K, x1 = 0.3999 | 929.42 | 1.831
298.15 K, x1 = 0.5 | 951.69 | 1.861
298.15 K, x1 = 0.6001 | 971.57 | 1.914
298.15 K, x1 = 0.6998 | 989.44 | 2.003
298.15 K, x1 = 0.7999 | 1005.79 | 2.141
298.15 K, x1 = 0.8997 | 1020.71 | 2.318
298.15 K, x1 = 1 | 1034.44 | 2.491
303.15 K, x1 = 0.1 | 838.99 | 1.845
303.15 K, x1 = 0.2001 | 871.41 | 1.682
303.15 K, x1 = 0.3 | 899.78 | 1.64
303.15 K, x1 = 0.3999 | 924.74 | 1.649
303.15 K, x1 = 0.5 | 946.87 | 1.678
303.15 K, x1 = 0.6001 | 966.65 | 1.727
303.15 K, x1 = 0.6998 | 984.43 | 1.806
303.15 K, x1 = 0.7999 | 1000.71 | 1.925
303.15 K, x1 = 0.8997 | 1015.58 | 2.078
303.15 K, x1 = 1 | 1029.25 | 2.229
308.15 K, x1 = 0.1 | 834.83 | 1.65
308.15 K, x1 = 0.2001 | 867.03 | 1.515
308.15 K, x1 = 0.3 | 895.21 | 1.482
308.15 K, x1 = 0.3999 | 920.02 | 1.492
308.15 K, x1 = 0.5 | 942.04 | 1.52
308.15 K, x1 = 0.6001 | 961.72 | 1.564
308.15 K, x1 = 0.6998 | 979.42 | 1.635
308.15 K, x1 = 0.7999 | 995.63 | 1.741
308.15 K, x1 = 0.8997 | 1010.45 | 1.876
308.15 K, x1 = 1 | 1024.08 | 2.008
313.15 K, x1 = 0.1 | 830.64 | 1.49
313.15 K, x1 = 0.2001 | 862.62 | 1.379
313.15 K, x1 = 0.3 | 890.63 | 1.355
313.15 K, x1 = 0.3999 | 915.3 | 1.366
313.15 K, x1 = 0.5 | 937.2 | 1.394
313.15 K, x1 = 0.6001 | 956.78 | 1.437
313.15 K, x1 = 0.6998 | 974.41 | 1.502
313.15 K, x1 = 0.7999 | 990.55 | 1.596
313.15 K, x1 = 0.8997 | 1005.31 | 1.712
313.15 K, x1 = 1 | 1018.9 | 1.821
318.15 K, x1 = 0.1 | 826.42 | 1.337
318.15 K, x1 = 0.2001 | 858.18 | 1.245
318.15 K, x1 = 0.3 | 886.02 | 1.226
318.15 K, x1 = 0.3999 | 910.54 | 1.239
318.15 K, x1 = 0.5 | 932.33 | 1.266
318.15 K, x1 = 0.6001 | 951.83 | 1.307
318.15 K, x1 = 0.6998 | 969.38 | 1.367
318.15 K, x1 = 0.7999 | 985.47 | 1.451
318.15 K, x1 = 0.8997 | 1000.18 | 1.556
318.15 K, x1 = 1 | 1013.72 | 1.66
323.15 K, x1 = 0.1 | 822.17 | 1.218
323.15 K, x1 = 0.2001 | 853.72 | 1.142
323.15 K, x1 = 0.3 | 881.38 | 1.129
323.15 K, x1 = 0.3999 | 905.78 | 1.143
323.15 K, x1 = 0.5 | 927.46 | 1.169
323.15 K, x1 = 0.6001 | 946.87 | 1.208
323.15 K, x1 = 0.6998 | 964.35 | 1.264
323.15 K, x1 = 0.7999 | 980.38 | 1.342
323.15 K, x1 = 0.8997 | 995.05 | 1.435
323.15 K, x1 = 1 | 1008.55 | 1.523
